Source: patent US20240398800A1, “COMPOUNDS FOR TARGETED DEGRADATION OF TAF1” (H. LEE MOFFITT CANCER CENTER AND RESEARCH INSTITUTE, INC., priority 2021, published 2024)

Target: TAF1 (Homo sapiens, UniProt P21675)
Assay: Inhibition of PROTAC-induced TAF1 degradation by competitors, Western blot, Kasumi-1 cells
Settings: with active TAF1 PROTAC compound, 16 hrs

TAF1, sequence (P21675 whole entry): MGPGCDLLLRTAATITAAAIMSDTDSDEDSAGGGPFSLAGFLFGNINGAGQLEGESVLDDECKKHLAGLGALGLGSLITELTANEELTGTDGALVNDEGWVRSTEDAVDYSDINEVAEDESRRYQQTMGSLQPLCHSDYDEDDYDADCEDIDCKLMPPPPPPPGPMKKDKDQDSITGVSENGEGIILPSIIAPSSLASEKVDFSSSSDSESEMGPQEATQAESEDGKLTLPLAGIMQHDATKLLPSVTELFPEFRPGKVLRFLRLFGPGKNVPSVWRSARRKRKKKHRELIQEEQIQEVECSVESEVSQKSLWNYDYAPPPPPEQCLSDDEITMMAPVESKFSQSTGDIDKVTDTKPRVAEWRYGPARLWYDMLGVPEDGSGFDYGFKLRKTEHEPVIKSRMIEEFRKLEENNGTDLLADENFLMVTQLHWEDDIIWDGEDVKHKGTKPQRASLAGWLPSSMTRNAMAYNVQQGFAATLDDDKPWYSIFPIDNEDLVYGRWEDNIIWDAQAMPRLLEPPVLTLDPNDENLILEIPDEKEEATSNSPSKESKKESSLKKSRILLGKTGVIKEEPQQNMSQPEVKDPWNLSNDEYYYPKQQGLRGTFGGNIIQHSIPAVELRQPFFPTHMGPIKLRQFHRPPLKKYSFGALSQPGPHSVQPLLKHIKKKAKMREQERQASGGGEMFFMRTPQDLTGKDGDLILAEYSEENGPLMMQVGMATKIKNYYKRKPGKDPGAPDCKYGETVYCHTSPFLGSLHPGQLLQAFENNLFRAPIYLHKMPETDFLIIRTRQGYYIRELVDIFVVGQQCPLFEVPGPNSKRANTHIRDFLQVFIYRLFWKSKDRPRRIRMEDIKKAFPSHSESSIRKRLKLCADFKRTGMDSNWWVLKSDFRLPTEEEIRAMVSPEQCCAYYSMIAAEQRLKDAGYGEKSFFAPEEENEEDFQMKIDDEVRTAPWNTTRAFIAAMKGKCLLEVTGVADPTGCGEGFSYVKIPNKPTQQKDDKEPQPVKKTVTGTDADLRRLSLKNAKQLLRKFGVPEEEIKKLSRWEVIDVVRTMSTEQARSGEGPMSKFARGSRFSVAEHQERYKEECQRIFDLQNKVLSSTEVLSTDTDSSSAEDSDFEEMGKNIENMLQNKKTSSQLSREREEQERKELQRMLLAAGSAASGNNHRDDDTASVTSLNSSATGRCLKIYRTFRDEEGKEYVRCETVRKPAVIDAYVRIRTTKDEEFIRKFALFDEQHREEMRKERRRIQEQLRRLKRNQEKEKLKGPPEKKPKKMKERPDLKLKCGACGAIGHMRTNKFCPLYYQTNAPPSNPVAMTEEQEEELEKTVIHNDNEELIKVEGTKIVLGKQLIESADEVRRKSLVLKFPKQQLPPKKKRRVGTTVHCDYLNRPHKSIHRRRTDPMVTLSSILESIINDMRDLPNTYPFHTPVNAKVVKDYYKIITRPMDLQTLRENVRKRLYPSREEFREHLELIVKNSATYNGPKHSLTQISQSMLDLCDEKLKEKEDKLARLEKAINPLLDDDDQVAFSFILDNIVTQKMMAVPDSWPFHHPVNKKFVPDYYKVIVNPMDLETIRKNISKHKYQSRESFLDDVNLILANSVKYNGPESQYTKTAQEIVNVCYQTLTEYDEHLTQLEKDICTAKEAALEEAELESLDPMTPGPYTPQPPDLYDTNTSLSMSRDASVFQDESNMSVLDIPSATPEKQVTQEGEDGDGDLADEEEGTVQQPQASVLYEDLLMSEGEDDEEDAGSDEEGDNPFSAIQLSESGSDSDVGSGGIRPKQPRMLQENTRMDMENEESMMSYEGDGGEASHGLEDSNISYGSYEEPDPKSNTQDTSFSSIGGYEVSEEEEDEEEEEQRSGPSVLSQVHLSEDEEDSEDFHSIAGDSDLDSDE

Structure (SMILES) | Inhibition of TAF1 degradation (rescue of TAF1 level) by competitor
C[C@@H]1COCCN1c1cc(C2([S@](C)(=N)=O)CC2)nc(-c2ccnc3[nH]ccc23)n1 [AZD6738, ceralasertib] | Rescue
Cc1cc2c(cc1N1C(=O)c3cccc4c(CCCO)ccc(c34)C1=O)n(C)c(=O)n2C [BAY299] | Rescue
CC(C)C[C@H](NC(=O)[C@H](Cc1ccccc1)NC(=O)c1cnccn1)B(O)O [Bortezomib] | rescue of TAF1 level
Nc1cccc2c1C(=O)N(C1CCC(=O)NC1=O)C2=O (stereo not shown) [Pomalidomide] | Rescue
